Measurements from patent publication US20190119270A1, “N-Oxide Compound and Its Use in Treating Cancer” (AstraZeneca AB, priority 2016, published 2019).

Key:
Type in all cases: cell-based
[1] = biological target: T1, ATR (Homo sapiens, UniProt Q13535); assay: ATR cellular potency assay (pChk1 Ser345 in HT29 cells with 4NQO); settings: pChk1 (Ser 345); read-out: Assay b) ATR Cell IC50
T1 construct: endogenous in cells; host or cells: HT29 cells (ECACC #85061109)
Excerpt: ATR is a PI 3-kinase-related kinase which phosphorylates multiple substrates on serine or threonine residues in response to DNA damage during or replication blocks. Chk1, a downstream protein kinase of ATR, plays a key role in DNA damage checkpoint control. Activation of Chk1 involves phosphorylation of Ser317 and Ser345 (the latter regarded as the preferential target for phosphorylation/activation by ATR). This was a cell based assay to measure inhibition of ATR kinase, by measuring a decrease in phosphorylation of Chk1 (Ser 345) in HT29 cells, following treatment with compound of Formula (I) and the UV mimetic 4NQO (Sigma #N8141).
HT29 cells (ECACC #85061109) were seeded into 384 well assay plates (Costar #3712) at a density of 6000 cells/well in 40 μl EMEM medium containing 1% L glutamine and 10% FBS and allowed to adhere overnight. […]
Phospho-Chk1 Ser 345 antibody (Cell Signalling Technology #2348) was diluted 150 fold in PBS containing 0.05% polysorbate/Tween and 15 μl was added to each well and incubated over night at r.t. […] After 2 h incubation at r.t., the plates were washed three times with 50 μl/well PBS, using a Biotek EL405 plate washer, and plates were then sealed with black plate seals until read. Plates were read using an ArrayScan VTI instrument, using an XF53 filter with 10× objective. […]

[2] = biological target: PI3Kα (Homo sapiens, UniProt P42336); assay: PI3K cellular potency assay (phospho-Akt T308 ELISA in BT474 cells); settings: 2 h, phospho-Akt (T308); read-out: Assay c) PI3Kα Cell IC50
Chain of PI3Kα (P27986 2-724): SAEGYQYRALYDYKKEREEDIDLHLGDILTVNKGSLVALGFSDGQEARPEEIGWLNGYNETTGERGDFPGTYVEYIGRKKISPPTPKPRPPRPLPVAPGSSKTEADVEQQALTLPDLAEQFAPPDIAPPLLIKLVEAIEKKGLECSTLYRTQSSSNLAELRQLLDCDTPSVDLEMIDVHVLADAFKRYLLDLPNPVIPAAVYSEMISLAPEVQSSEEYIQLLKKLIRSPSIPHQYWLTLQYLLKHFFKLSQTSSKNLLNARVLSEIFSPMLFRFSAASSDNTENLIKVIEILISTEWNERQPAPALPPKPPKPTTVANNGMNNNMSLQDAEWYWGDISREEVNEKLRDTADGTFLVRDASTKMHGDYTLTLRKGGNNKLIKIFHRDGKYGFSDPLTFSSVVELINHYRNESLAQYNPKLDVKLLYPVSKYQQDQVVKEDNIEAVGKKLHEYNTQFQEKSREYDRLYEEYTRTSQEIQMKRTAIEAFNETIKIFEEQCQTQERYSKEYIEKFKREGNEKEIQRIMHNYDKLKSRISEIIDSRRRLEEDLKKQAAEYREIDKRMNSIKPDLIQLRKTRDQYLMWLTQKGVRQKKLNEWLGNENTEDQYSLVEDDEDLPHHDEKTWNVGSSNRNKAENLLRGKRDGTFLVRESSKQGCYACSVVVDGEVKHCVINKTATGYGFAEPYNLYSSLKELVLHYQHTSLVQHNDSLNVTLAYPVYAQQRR
Chain of PI3Kα (P42336 whole entry): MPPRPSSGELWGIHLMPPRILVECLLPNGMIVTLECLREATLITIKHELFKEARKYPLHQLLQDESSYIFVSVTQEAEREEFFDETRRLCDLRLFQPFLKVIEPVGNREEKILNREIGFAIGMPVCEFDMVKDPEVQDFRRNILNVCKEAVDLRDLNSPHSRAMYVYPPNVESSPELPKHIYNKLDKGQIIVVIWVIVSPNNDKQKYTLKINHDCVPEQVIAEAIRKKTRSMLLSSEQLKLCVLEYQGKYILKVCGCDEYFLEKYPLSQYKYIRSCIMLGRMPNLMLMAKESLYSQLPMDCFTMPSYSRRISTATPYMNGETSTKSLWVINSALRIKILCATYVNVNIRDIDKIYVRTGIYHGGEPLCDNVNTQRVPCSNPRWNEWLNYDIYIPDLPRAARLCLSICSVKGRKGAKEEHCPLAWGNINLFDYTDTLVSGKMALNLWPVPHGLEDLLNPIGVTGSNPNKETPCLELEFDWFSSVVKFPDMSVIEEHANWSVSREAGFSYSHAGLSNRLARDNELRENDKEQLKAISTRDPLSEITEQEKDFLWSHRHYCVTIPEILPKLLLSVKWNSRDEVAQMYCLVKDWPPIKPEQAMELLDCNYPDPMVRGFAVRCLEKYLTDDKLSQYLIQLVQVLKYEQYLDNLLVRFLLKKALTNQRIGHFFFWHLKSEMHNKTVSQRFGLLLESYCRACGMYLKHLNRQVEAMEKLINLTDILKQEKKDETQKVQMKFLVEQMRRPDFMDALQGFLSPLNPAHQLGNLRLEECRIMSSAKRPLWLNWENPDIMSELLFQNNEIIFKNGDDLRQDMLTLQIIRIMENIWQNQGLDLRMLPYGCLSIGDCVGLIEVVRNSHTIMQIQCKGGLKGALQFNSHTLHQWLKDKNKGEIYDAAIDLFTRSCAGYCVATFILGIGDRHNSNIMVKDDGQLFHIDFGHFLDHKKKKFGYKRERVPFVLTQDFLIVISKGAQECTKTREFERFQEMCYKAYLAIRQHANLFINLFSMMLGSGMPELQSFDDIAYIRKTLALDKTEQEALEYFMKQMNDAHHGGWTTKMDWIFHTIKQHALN
Excerpt: This assay was used to measure PI3K-a inhibition in cells. PDK1 was identified as the upstream activation loop kinase of protein kinase B (Akt1), which is essential for the activation of PKB. Activation of the lipid kinase phosphoinositide 3 kinase (PI3K) is critical for the activation of PKB by PDK1.
Following ligand stimulation of receptor tyrosine kinases, PI3K is activated, which converts PIP2 to PIP3, which is bound by the PH domain of PDK1 resulting in recruitment of PDK1 to the plasma membrane where it phosphorylates AKT at Thr308 in the activation loop.
The aim of this cell-based mode of action assay is to identify compounds that inhibit PDK activity or recruitment of PDK1 to membrane by inhibiting PI3K activity. Phosphorylation of phospho-Akt (T308) in BT474c cells following treatment with compounds for 2 h is a direct measure of PDK1 and indirect measure of PI3K activity. […]
After 20 minutes, the cell lysates were transferred into ELISA plates (Greiner #781077) which had been pre-coated with an anti total-AKT antibody in PBS buffer and non-specific binding was blocked with 1% BSA in PBS containing 0.05% Tween 20. […] Plates were read using a Tecan Safire plate reader using 325 nm excitation and 420 nm emission wavelengths respectively. […]

[3] = biological target: T2, mTOR (Homo sapiens, UniProt P42345); assay: mTOR cellular potency assay (phospho-AKT Ser473 in MDA-MB-468 cells); settings: 2 hours, phospho-AKT (Ser473), protocol A or B; read-out: Assay d) mTOR Cell IC50
T2 construct: endogenous in cells; host or cells: MDA-MB-468 cells
Description: The phospho-AKTser473 cell assay was performed in the MDA-MB-468 cell line, a PTEN null breast adenocarcinoma human cell line. As a consequence of the lack of PTEN, pAKT is constitutively activated which eliminates the requirement for stimulation to induce phosphorylation.
MDA-MB-468 cells were cultured in cell media composed of DMEM (Dulbecco's modified Eagle's medium #D6546)), 10% (v/v) Foetal Calf Serum and 1% (v/v) L-Glutamine. After harvesting, cells were dispensed into black, 384-well Costar plates (#3712, Corning) to give 1500 cells per well in a total volume of 40 μl cell media, and were incubated overnight at 37° C., 90% relative humidity and 5% CO2 in a rotating incubator. […]
Stained cell plates were covered with black seals, and then read on the Acumen (TTP Labtech) plate reader. The primary channel (green fluorescence, 488 nm) is used to set the intensity settings for the max/min cut off to allow for weekly variation in staining and the ‘AKT+: No of objects (No)’ data is used for the analysis. Data was analysed and IC50s were calculated using Genedata Screener® software. […]
Stained cell plates were covered with black seals, and then read on the Cell Insight imaging platform (Thermo Scientific), with a 10× objective. […] The secondary channel (Green […], BGRFR_485_20) measures pAKT staining Data was analysed and IC5os were calculated using Genedata Screener® software.

[4] = biological target: T3, ATM (Homo sapiens, UniProt Q13315); assay: ATM cellular potency assay (pATM Ser1981 in irradiated HT29 cells); settings: X-ray irradiation, pATM (Ser1981); read-out: Assay a) ATM Cell IC50
T3 construct: endogenous in cells; host or cells: HT29 cells (ECACC #85061109)
T3 sequence (Q13315 whole entry): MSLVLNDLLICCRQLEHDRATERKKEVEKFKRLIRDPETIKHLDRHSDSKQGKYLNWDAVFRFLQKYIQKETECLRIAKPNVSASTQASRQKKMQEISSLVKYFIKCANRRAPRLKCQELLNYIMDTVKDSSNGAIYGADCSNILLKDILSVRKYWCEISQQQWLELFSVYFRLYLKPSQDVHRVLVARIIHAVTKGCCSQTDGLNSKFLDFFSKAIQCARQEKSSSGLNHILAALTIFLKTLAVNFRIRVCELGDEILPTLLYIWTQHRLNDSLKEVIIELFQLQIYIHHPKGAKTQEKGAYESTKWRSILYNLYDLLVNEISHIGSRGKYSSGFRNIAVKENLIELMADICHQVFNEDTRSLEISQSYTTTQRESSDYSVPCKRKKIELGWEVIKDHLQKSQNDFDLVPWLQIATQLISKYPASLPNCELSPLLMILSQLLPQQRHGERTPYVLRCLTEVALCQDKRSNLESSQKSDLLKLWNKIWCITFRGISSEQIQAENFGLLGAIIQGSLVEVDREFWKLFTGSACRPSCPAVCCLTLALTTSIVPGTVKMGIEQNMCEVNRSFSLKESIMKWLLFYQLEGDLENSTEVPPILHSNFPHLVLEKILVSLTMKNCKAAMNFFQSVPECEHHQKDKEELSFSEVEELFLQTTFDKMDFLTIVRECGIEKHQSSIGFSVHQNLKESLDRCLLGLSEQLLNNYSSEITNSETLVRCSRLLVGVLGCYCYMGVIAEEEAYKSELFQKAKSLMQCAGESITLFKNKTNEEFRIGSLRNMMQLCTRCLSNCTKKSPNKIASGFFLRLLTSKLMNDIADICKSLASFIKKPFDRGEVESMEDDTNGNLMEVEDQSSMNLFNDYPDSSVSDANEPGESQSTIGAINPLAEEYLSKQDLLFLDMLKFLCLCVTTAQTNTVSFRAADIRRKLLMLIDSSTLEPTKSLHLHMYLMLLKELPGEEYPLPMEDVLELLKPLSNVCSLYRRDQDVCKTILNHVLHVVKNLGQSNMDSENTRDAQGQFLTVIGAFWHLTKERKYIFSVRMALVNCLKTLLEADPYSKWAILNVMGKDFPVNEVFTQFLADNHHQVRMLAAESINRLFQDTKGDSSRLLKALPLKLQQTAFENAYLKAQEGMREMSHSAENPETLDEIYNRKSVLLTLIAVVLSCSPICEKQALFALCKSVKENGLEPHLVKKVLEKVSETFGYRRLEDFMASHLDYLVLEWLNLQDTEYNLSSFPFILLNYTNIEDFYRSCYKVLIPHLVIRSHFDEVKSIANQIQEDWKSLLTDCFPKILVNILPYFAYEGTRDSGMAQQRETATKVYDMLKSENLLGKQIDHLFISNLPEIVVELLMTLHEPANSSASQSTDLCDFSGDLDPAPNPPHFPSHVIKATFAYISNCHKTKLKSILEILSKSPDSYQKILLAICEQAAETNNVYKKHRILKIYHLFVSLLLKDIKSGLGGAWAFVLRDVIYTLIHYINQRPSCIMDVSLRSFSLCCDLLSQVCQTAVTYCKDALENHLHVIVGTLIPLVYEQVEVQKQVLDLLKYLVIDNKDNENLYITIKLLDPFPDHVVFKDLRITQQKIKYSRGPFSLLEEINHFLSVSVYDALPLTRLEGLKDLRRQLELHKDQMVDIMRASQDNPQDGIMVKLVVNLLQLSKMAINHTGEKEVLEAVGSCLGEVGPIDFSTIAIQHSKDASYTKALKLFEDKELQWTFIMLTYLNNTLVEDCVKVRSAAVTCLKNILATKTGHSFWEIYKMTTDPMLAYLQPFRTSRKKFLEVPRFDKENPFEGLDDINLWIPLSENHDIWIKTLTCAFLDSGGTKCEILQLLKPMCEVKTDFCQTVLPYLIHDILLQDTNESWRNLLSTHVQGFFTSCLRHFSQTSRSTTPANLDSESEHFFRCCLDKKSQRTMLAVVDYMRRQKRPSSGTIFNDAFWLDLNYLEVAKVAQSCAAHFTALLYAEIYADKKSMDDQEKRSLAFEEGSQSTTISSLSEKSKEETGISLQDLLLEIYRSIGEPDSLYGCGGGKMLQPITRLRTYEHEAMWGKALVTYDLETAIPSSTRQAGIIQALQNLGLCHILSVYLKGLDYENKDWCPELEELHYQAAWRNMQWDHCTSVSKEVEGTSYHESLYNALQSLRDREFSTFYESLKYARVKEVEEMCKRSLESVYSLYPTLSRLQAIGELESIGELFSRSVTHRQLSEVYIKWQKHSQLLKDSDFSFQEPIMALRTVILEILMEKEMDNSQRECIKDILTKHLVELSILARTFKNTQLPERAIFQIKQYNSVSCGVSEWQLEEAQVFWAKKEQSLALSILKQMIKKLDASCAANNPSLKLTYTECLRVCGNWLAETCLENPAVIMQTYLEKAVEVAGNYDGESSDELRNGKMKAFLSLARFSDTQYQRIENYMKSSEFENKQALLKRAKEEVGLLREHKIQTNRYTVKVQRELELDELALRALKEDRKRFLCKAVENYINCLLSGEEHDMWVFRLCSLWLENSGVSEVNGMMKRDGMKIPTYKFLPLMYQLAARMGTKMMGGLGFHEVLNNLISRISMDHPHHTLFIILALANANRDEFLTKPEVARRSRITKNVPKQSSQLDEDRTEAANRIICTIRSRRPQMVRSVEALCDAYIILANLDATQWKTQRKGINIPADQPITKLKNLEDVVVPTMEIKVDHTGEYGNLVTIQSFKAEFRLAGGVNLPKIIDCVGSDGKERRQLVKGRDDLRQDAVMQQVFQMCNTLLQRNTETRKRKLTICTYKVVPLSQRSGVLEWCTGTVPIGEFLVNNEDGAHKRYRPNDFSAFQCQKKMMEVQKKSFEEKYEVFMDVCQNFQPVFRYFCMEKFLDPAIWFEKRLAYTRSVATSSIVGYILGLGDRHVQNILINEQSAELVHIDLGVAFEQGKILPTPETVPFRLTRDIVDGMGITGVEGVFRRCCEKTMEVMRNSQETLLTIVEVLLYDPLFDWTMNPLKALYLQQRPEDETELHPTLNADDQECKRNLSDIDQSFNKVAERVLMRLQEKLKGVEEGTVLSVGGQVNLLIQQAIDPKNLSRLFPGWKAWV
Excerpt: Cellular irradiation induces DNA double strand breaks and rapid intermolecular autophosphorylation of serine 1981 that causes dimer dissociation and initiates cellular ATM kinase activity. Most ATM molecules in the cell are rapidly phosphorylated on this site after doses of radiation as low as 0.5 Gy, and binding of a phosphospecific antibody is detectable after the introduction of only a few DNA double-strand breaks in the cell.
The rationale of the pATM assay is to identify inhibitors of ATM in cells. HT29 cells are incubated with test compounds for lhr prior to X-ray-irradiation. 1 h later the cells are fixed and stained for pATM (Ser1981). The fluorescence is read on the arrayscan imaging platform.
HT29 cells (ECACC #85061109) were seeded into 384 well assay plates (Costar #3712) at a density of 3500 cells/well in 40 μl EMEM medium containing 1% L glutamine and 10% FBS and allowed to adhere overnight. […]
Phospho-ATM Ser1981 antibody (Millipore #MAB3806) was diluted 10000 fold in PBS containing 0.05% polysorbate/Tween and 3% BSA and 20 μl was added to each well and incubated over night at r.t. […] After 1 h incubation at r.t., the plates were washed three times with 50 μl/well PBS, using a Biotek EL405 plate washer, and plates were sealed and kept in PBS at 4° C. until read. Plates were read using an ArrayScan VTI instrument, using an XF53 filter with 10× objective. […]

Cn1c(=O)n(C2CCOCC2)c2c3cc(-c4ccc(OCCC[N+](C)(C)[O-])nc4)ccc3ncc21 [Example 1]
IC50 [1]: 10.3 µM
IC50 [2]: 17.8 µM
IC50 [3]: > 1.25 µM
IC50 [4]: 0.0054 µM
